Data published in patent US12576168B2, “Peptide PET/SPECT probes specific to oncoproteins in tumor extracellular matrix” (CASE WESTERN RESERVE UNIVERSITY, priority 2019, dated 2026).
Ends that are not written are not given here. * marks the point of attachment. DOTA = O=C(O)CN1CCN(CC(=O)O)CCN(CC(=O)*)CCN(CC(=O)O)CC1; AEEA = NCCOCCOCC(=O)O

Experiments:
[1] = target: T1, EDB-FN (Homo sapiens, UniProt P02751); assay: ZD2 peptide binding to prostate tissue; parameters: from tissue; host or cells: High-grade and low-grade prostate tumour and normal tissue
[2] = Water solubility; type: physicochemical
[3] = target: T1, EDB-FN; assay: ZD2-Cy5.5 fluorescence binding to slides of human pancreatic cancer xenografts; parameters: incubation of ZD2-Cy5.5 with tumor slides of the above tumor xenografts; from tissue; host or cells: Sections of BXPC3, Capan-1, Panc 10.05 and Panc-1 tumour xenografts from female nude mice; normal pancreas and muscle as controls
Procedure: A ZD2 peptide (Thr-Val-Arg-The-Ser-Ala-Asp) targeted fluorescence tracer ZD2-Cy5.5 was synthesized according to a reported method to assess the binding of the peptide to EDB-FN in PaCa tumors. The binding specificity of ZD2 peptide to EDB-FN in pancreatic cancer has been tested by incubation of ZD2-Cy5.5 with tumor slides of the above tumor xenografts. […] ZD2 peptide is a promising targeting agent for specific binding of EDB-FN in PaCa tumors.

[4] = target: T1, EDB-FN; assay: ZD2-Cy5.5 staining of human pancreatic specimens; type: binding; parameters: incubation of ZD2-Cy5.5 with tumor slides of the above tumor xenografts; from tissue; host or cells: Sections of BXPC3, Capan-1, Panc 10.05 and Panc-1 tumour xenografts from female nude mice; normal pancreas and muscle as controls
[5] = tested on: LNCaP human prostate cancer xenografts; assay: PET/CT imaging of tracer uptake in LNCaP tumors of tumor-bearing mice; type: in vivo; conditions: 22 h after injection, 7.4 MBq (200 μCi) per mouse i.v., N=4
Procedure: (§1) The animal study has been approved by the Institutional Animal Care and Use Committee of the Case Western Reserve University (CWRU), […]. PC3 and LNCaP cells were acquired from the American Type Culture Collection (ATCC, Manassas, VA, USA) and cultured in Roswell Park Memorial Institute medium (Thermo Fisher Scientific, Waltham, MA) supplemented with 10% fetal bovine serum, 100 U/mL penicillin, and 0.1 mg/mL streptomycin in a humid incubator maintained at 37° C. and 5% CO2. Male athymic nude mice (4-6 weeks old) were acquired from the Case Comprehensive Cancer Center (Cleveland, OH, USA) and housed in the CWRU Animal Core Facility. Three million cells in high concentration Matrigel (Corning, Tewksbury, MA) were used for tumor inoculation. LNCaP cells were subcutaneously inoculated in the left flank of the mice. Four weeks later, PC3 cells were inoculated on the right flank of the same mice for PET imaging.
(§2) The radioisotope ^64Cu(II) was acquired from the University of Wisconsin-Madison (Madison, WI). The chelation of ZD2-PEG-DOTA with Cu(II) was first tested with cold CuCl2 in 0.1 N HCl aqueous solution under the same condition as radiolabeling. […] The formation of ZD2-DA-(Cu-DOTA) was verified by MALDI-TOF mass spectrometry (M+1: 1487.8, observed; 1486.04, calculated). […]

[6] = tested on: PC3 human prostate cancer xenografts; assay: PET/CT imaging of tracer uptake in PC3 tumors of tumor-bearing mice; type: in vivo
Procedure: as §1, §2

T1 sequence (P02751 32-2477): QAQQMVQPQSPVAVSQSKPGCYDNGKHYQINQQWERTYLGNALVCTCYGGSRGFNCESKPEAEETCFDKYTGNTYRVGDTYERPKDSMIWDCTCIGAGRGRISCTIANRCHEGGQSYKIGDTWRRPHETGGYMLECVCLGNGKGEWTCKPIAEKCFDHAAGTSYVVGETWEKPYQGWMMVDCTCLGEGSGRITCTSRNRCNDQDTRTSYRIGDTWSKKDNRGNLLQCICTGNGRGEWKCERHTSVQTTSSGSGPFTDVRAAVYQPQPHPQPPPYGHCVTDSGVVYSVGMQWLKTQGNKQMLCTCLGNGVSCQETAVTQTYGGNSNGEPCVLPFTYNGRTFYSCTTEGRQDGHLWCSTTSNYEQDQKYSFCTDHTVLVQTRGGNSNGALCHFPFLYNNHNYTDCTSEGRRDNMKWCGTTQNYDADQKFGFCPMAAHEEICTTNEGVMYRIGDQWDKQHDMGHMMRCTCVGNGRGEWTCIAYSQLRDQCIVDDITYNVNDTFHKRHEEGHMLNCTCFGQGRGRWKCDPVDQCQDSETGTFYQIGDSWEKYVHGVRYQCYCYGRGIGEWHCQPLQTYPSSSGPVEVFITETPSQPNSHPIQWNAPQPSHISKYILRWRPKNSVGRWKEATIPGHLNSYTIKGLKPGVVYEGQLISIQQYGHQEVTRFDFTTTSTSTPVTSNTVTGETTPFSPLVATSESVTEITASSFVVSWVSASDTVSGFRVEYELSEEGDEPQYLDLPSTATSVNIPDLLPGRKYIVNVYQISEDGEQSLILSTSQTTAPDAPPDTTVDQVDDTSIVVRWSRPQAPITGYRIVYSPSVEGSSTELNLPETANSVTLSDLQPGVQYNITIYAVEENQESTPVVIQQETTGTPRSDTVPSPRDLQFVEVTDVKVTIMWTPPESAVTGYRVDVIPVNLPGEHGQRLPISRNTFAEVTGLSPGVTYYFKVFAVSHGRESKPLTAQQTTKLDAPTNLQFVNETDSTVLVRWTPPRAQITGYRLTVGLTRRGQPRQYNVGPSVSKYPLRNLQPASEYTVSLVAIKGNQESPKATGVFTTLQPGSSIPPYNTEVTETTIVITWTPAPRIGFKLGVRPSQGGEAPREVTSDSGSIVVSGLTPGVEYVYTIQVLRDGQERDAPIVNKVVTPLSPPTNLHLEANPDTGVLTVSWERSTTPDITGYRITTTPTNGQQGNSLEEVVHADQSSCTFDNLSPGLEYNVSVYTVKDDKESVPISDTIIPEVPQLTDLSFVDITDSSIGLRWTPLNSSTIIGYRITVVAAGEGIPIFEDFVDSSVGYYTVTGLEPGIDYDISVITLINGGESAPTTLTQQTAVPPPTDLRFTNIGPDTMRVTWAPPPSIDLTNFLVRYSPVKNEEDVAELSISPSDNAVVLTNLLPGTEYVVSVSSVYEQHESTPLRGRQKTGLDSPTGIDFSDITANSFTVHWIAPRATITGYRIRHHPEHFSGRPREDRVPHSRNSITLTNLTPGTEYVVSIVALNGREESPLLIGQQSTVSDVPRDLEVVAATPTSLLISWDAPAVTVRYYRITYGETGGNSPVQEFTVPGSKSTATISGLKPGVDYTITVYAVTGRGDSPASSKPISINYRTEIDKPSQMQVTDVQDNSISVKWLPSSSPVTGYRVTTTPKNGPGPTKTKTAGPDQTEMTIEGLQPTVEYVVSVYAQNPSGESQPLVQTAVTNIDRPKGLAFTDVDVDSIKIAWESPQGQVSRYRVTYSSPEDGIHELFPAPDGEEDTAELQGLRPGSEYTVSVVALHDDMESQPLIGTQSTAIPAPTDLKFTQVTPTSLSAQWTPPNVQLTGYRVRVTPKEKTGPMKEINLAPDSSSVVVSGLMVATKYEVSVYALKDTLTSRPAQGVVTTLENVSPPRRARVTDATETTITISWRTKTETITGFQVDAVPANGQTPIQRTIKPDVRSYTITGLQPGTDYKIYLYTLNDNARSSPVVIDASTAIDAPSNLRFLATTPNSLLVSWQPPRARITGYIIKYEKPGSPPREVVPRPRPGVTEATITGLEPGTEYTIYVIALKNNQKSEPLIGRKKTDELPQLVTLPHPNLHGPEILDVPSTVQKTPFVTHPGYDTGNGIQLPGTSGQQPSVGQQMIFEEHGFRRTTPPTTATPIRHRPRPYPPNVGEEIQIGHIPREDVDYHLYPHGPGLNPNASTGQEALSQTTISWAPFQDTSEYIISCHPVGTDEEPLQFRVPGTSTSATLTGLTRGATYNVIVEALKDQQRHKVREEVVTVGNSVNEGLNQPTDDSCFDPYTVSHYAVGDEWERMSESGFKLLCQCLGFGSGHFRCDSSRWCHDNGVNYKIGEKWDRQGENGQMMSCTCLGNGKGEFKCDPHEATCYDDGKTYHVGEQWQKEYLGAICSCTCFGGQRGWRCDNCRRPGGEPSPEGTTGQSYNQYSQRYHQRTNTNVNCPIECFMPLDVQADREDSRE

TVRTSAD-OH [ZD2 peptide, Thr-Val-Arg-Thr-Ser-Ala-Asp]
binding in normal tissue [1]: nonbinding | binding to low-grade tumor [1]: weak binding affinity | binding toward high-grade prostate tumor [1]: strong binding affinity | water solubility [2]: highly water-soluble

ZD2-Cy5.5: ZD2 peptide targeted fluorescence tracer synthesized according to a reported method (TVRTSAD; also: Cy5.5 fluorescence tracer attached, site not given here)
binding to EDB-FN in PaCa after pre-incubation with BC-1 anti-EDB-FN monoclonal antibody ([3]; BC-1/ZD2): blocked | binding to normal pancreas and muscle ([3]; tissue slides): No significant binding | binding to BXPC3, Capan-1, Panc 10.05 and Panc-1 tumor tissues ([3]; tumor xenograft slides): strong binding | fluorescence staining of precancerous pancreatic intraepithelial neoplasia ([4]; human PanIN): some fluorescence intensity | fluorescence staining of normal pancreas ([4]; human normal pancreas): little fluorescence | fluorescence staining of human PaCa specimen ([4]; human pancreatic cancer): strong red fluorescence

ZD2-DA-(^64Cu-DOTA): ZD2 peptide (TVRTSAD) linked via two repeats of 8-amino-3,6-dioxaoctanoic acid to DOTA, complexed with 64Cu ({DOTA-AEEA-AEEA}-TVRTSAD; also: 64Cu chelated by DOTA)
accumulation of PET tracer in LNCaP tumors (ROI) [5]: 3213±1511 Bq/mL | accumulation of PET tracer in PC3 tumors compared to LNCaP tumors ([6]; 22 h, P<0.05): over two-folds higher | accumulation of PET tracer in PC3 tumors (ROI) ([6]; 22 h after injection, 7.4 MBq (200 μCi) per mouse i.v., N=4): 7711±1994 Bq/mL
